One test deals with T1, HDAC6 enzyme (Homo sapiens, UniProt Q9UBN7).
T1 construct: HDAC6 enzyme prepared by transducing full length HDAC6 gene into Sf-9 insect cells; GST; purchased SignalChem; host or cells: Sf-9 insect cells
T1 sequence (Q9UBN7 1-1215): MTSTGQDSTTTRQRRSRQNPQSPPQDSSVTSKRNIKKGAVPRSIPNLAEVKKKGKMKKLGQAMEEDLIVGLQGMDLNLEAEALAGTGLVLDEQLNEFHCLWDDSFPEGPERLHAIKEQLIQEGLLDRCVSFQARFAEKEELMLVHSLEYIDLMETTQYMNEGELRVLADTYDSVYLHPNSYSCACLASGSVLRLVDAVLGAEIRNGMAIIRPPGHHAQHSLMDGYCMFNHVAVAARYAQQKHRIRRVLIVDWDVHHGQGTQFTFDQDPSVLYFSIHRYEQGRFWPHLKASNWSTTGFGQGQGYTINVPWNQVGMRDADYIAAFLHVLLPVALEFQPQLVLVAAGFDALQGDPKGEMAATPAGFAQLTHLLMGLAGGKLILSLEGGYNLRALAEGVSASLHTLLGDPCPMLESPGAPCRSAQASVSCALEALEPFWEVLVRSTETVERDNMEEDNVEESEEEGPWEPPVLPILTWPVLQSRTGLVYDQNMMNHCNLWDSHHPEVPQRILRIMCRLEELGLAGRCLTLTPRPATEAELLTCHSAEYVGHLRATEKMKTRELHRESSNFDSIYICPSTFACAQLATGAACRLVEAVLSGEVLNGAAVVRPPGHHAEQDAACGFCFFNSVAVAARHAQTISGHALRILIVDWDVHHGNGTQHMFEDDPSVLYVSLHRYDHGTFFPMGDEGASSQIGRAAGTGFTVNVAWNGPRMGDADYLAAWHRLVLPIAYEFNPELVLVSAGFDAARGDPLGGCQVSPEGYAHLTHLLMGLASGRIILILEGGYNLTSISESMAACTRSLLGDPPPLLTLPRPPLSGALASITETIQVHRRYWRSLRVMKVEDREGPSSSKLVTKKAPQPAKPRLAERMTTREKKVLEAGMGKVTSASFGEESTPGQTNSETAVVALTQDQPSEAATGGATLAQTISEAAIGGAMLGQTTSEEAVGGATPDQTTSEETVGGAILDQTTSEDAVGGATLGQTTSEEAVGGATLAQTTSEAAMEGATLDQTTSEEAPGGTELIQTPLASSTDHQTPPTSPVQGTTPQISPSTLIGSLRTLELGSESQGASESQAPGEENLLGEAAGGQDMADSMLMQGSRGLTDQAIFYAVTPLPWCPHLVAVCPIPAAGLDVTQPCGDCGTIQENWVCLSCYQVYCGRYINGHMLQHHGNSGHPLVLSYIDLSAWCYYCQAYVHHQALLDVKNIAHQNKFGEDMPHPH
Description: HDAC6 enzyme inhibitory assay (HDAC-Glo I/II Assay kit). It is filed as biochemical. As to conditions: wells without enzyme = 100% inhibition, read-out: HDAC6 inhibitory rate (%) (10 μM). In short, it runs like this:
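Full-length GST-purified HDAC6 from Sf-9 cells preincubated with compound 60 min at room temperature in Tris-HCl pH 7.5 buffer with MgCl2, KCl, NaCl, glutathione, Tween-20. Substrate-developer reaction 20 min, luminescence read; no-enzyme wells set as 100% inhibition.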

Test [1] concerns P301S mutant human tau (4R1N) Tg mouse. Put plainly: Cognitive improvement action in neurodegenerative disease model mouse (novel object recognition test). It is filed as in vivo. As to conditions: once a day for three months. How it is done:
A drug was suspended in 0.5% methyl cellulose to prepare a suspension for administration. The suspension was repeatedly administered into six month-old male P301S mutant human tau (4R1N) Tg mouse once a day for three months, and novel object recognition test was performed by the following method. The test is comprised of memory acquisition trial of object on the first day, and memory retention trial of familiar object and novel object on the second day. Drug was administered into the mouse 1 hr before the trials on both days. For acquisition trial, The mouse was put in a test box (30 cm×30 cm×25 cm) in which two identical objects were placed, and contact frequency and contact duration with the objects for 5 min were measured under 50 lux. Herein, the contact means a behavior getting a sniff of an object (Sniffing). Next day, one of the objects was replaced with new object, and contact frequency and contact duration with each object for 5 min were measured. Novelty discrimination index (NDI) as an index of cognitive function was calculated by novel object […]/(novel object contact duration+familiar object contact duration) %. […] After F test for vehicle administration wild-type group and vehicle administration Tg group, the significant difference between the two groups was analyzed by Student t-test or Welch test (indicated as **p<0.01). […]

Test [2] has as its system acetylated tubulin in mouse brain. Description: Increase in acetylated tubulin in brain (hippocampus, ELISA). It is filed as in vivo. Particulars: male C57BL/6J mouse, oral, 4 h after administration. The source says: A drug was suspended in 0.5% methyl cellulose to prepare a suspension for administration, having a concentration shown in Table 3. The suspension was orally administered into 8 to 10-week old male C57BL/6J mouse, and after the passage of the time shown in Table 3, the brain was taken out, and hippocampus was obtained. The hippocampus was homogenized under RIPA extract (FUJIFILM Wako Pure Chemical Corporation) to which protease inhibitor (Thermo Fisher Scientific) and phosphatase inhibitor (Thermo Fisher Scientific) were added, and centrifuged in 15,000 g for 15 min to prepare a protein extract. The acetylated tubulin and total tubulin in the extract were detected by the following ELISA method. Tubulin antibody (Sigma) was immobilized on 96-well plate (Microlite2+, Thermo Fisher Scientific), and the plate was stored at 4° C. Next day, the plate was washed four times with PBS-T, and blocking buffer (1% BSA/PBS-T) was added thereto, and the reaction was carried out at 37° C. for 2 hr. The plate was washed four times with PBS-T, and the above-mentioned protein extract was added thereto to capture the tubulin on the antibody. The plate was stored at 37° C. for 2 hr, and washed four times with PBS-T. Anti-acetylated tubulin antibody or total tubulin antibody (Cell Signaling Technology), each diluted with blocking buffer, was added thereto, and the reaction was carried out at 37° C. for 1 hr. […] The plate was washed, HRP substrate was added thereto, and the luminescence was measured using a plate reader. The acetylated tubulin and total tubulin were quantified from logistics curve based on dilution series using the mouse hippocampus tissue extract, and the amount of the acetylated tubulin relative to the total tubulin was calculated, and evaluated as an relative tubulin acetylation level. […] After F test for vehicle group and drug group, the significant difference between the two groups was analyzed by Student t-test or Welch test (indicated as *p<0.05, **p<0.01, n.s.: not significant). […]
In general terms: In an ELISA, binding on a coated surface is turned into a signal by an enzyme label.

A further test has as its system tauopathy mouse model. As to conditions: cited from earlier work.

“Also recorded” adds a separate entry of the source.

Take `O=C1c2cc(-c3nnc(C(F)F)o3)ccc2CN1[C@H](c1ccccn1)[C@@H](O)c1ccc(F)cn1` [Example 3, 6-[5-(difluoromethyl)-1,3,4-oxadiazol-2-yl]-2-[(1R,2R)-2-(5-fluoropyridin-2-yl)-2-hydroxy-1-(pyridin-2-yl)ethyl]-2,3-dihydro-1H-isoindol-1-one]: the inhibition at 10 µM at HDAC6 enzyme was found to be 101%. Further, in test [1], the “cognitive improvement action (novelty discrimination, relative exploration time)” value is “cognitive improvement action”. Also, the “relative tubulin acetylation level (acetylated tubulin relative to total tubulin)” value in test [2] was “increase in significant tubulin acetylation level; also recorded: increase in acetylated tubulin”.

As for `O=C1c2cc(-c3nnc(C(F)F)o3)ccc2CN1[C@H](c1ccccn1)[C@@H](O)c1ccccn1` [Example 1, 6-[5-(difluoromethyl)-1,3,4-oxadiazol-2-yl]-2-[(1R,2R)-2-hydroxy-1,2-di(pyridin-2-yl)ethyl]-2,3-dihydro-1H-isoindol-1-one], the inhibition at 10 µM at HDAC6 enzyme amounted to 101%. Also, the “cognitive improvement action (novelty discrimination, relative exploration time)” value in test [1] is recorded as “cognitive improvement action”. The “relative tubulin acetylation level (acetylated tubulin relative to total tubulin)” value in test [2] was “increase in significant tubulin acetylation level; also recorded: increase in acetylated tubulin”.

In the case of `CN1CCc2c(c3ccccc3n2Cc2ccc(C(=O)NO)cc2)C1` [Tubastatin A], in the test on tauopathy mouse model, the acetylation of tubulin entry is reported as “increases acetylation of tubulin” and the therapeutic effectiveness result is reported as “shows therapeutic effectiveness”.

The values are drawn from US12384770B2, “Heterocyclic compound” (Takeda Pharmaceutical Company Limited, priority 2019, dated 2025).
